Several values for one entry are separate records, joined by “and”; a condition that tells them apart may be missing. Identical values can stand only once. Where no end group is shown, it is not given here. The star is where a group is joined. FITC = O=C1OC2(c3ccc(O)cc3Oc3cc(O)ccc32)c2ccc(NC(=S)*)cc21; Ahx = NCCCCCC(=O)O
What was measured:
NIH3T3 cells = test: Microarray transcriptional changes; format: cell-based, mouse; settings: NIH3T3; 20μM for 24 h
Protocol: Total RNA of the treated cells was extracted using TRIzol (Invitrogen) and purified with RNeasy chromatography (Qiagen). Cy3-labeled RNA (0.6 μg) from each condition was hybridized to Agilent Mouse 8x60K. Data were processed using the oligo package and normalized using Robust Multiarray Average (RMA) method. […] Pathway analysis was performed using the STRING database ([…]).

rd10 mice = test: rd10 mice, single intravitreal injection, retina histology; format: in vivo, mouse; settings: rd10 mice; individual values and Mean CA77
Protocol: C57BL/6 J mice wild-type (WT) and homozygous for the Pde6 mutation (rd10 mouse model of retinal degeneration) were obtained from The Jackson Laboratory and experiments were performed at the age indicated in each part of the study. C57BL/6 KFERQ-Dendra mice were generated by back-crossing FVB KFERQ-Dendra mice with wild-type C57BL/6 mice for 8 generations. Both male and female animals were used in this study in equally distribution groups. However, results from both sexes were pooled, because of absence of significant differences in any of the parameters analyzed after statistical analysis with a mixed model of two-way ANOVA sex and treatment as independent variables and the corresponding measure as dependent variable. All animals were housed in a barrier-controlled facility (19–23 °C 30–60% relative humidity; 12 h light/dark cycle) with ad libitum access to standard chow pellets (protein 19 gm%/carbohydrate 67 gm%/fat 4 gm%) and water. For animal administration of CA compounds, a formula containing 30% PEG 400 (Sigma, #8.0745), 65% of 5% glucose solution, 5% Tween 80 (Sigma, #P1754) was used to dissolve them. CA compounds were prepared freshly by adding 5% DMSO and sonicating for 1 h. Treatment of KFERQ-Dendra mice with the CA compounds was done at 4 months of age by i.p. daily injection of 30 mg/kg bw or vehicle for three consecutive days and tissues collected 6 h after the last injection. In the case of rd10 mice, animals were daily injected from P18 to P25 with CA77 (40 mg/kg bw). In the case of intravitreal administration, a single intravitreal injection was applied at P18 with CA77 (40 µM) in DMSO/PBS and the contralateral eye was injected with PBS and DMSO at same concentration. At P26, mice were sacrificed and eyes fixed overnight with 4% PFA (Sigma, #P6148) in PBS at 4 °C for immunofluorescence or retinas dissected and immediately frozen for biochemistry. Distribution of animals in the vehicle or treatment group was done randomly. ICR (CD-1) outbred 3 months old male mice from ENVIGO were used for the pharmacokinetic studies (see pharmacokinetic section for housing and handling details). All animal studies and procedures complied with ethical regulations, were performed in accordance with the European Union guidelines and the ARVO Statement for the Use of Animals in Ophthalmic and Vision Research and were approved by the Institutional Animal Care and Use Committee at the Albert Einstein College of Medicine, the CSIC Bioetica Comite and approved by the Comunidad de Madrid, PROEX232/17.
12 μm cryosections and immunofluorescence in retinal sections[10] after orienting retinas with a dorsal mark, so comparisons were performed taking into account the precise retinal area. Primary antibodies used in this study were visual (rod) arrestin, cone arrestin, Opsin R/G, transducin, GFAP, N-CoR1. Sections were visualized by confocal microscopy (TCS SP5; Leica Microsystems).
For ONL thickness quantification, DAPI images were taken at 40X in a fluorescence microscope Multidimensional system Leica AF6000 LX coupled to DMI600B microscope and Hamamatsu CCD 9100-O2 camera. At least two sections per animal were analyzed, preferably central sections. Eight images per retina equally distributed along the retina were acquired. Three measures were taken per image and ratio ONL/INL quantified with ImageJ tools. Leica LAS-X (3.7.4.23463) was used for image acquisition and ImageJ (v.2.1.0) was used for image processing. For OS length measures, fixed positions common to all pictures were considered and OS length was measured using ImageJ straight line tool.
Eyes were enucleated, put in a plate with cold PBS and an incision was made under the microscope to let the fixative enter into the eye. […]

N-CoR1 and RARα = target: T1, N-CoR1 and RARα (Mus musculus, UniProt P11416); test: Streptavidin pulldown of biotin-CA, immunoblot for N-CoR1 and RARα; format: cell-based; settings: NIH3T3, 10 μM for 24 h
T1 construct: endogenous in cells; host or cells: NIH3T3
T1 sequence (P11416 whole entry): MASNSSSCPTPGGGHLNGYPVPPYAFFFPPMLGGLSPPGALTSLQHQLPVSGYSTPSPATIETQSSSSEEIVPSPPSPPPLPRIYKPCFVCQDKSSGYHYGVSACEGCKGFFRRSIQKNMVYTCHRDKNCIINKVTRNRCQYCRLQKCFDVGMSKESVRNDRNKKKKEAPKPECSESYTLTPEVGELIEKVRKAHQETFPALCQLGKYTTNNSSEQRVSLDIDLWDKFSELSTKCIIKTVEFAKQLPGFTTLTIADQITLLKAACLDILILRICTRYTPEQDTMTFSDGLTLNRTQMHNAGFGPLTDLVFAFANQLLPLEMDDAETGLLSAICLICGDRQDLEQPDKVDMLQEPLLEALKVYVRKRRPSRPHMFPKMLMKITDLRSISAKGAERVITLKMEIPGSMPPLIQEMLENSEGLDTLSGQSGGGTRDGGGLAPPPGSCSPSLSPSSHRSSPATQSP
T1 sequence (Q60974 whole entry partner): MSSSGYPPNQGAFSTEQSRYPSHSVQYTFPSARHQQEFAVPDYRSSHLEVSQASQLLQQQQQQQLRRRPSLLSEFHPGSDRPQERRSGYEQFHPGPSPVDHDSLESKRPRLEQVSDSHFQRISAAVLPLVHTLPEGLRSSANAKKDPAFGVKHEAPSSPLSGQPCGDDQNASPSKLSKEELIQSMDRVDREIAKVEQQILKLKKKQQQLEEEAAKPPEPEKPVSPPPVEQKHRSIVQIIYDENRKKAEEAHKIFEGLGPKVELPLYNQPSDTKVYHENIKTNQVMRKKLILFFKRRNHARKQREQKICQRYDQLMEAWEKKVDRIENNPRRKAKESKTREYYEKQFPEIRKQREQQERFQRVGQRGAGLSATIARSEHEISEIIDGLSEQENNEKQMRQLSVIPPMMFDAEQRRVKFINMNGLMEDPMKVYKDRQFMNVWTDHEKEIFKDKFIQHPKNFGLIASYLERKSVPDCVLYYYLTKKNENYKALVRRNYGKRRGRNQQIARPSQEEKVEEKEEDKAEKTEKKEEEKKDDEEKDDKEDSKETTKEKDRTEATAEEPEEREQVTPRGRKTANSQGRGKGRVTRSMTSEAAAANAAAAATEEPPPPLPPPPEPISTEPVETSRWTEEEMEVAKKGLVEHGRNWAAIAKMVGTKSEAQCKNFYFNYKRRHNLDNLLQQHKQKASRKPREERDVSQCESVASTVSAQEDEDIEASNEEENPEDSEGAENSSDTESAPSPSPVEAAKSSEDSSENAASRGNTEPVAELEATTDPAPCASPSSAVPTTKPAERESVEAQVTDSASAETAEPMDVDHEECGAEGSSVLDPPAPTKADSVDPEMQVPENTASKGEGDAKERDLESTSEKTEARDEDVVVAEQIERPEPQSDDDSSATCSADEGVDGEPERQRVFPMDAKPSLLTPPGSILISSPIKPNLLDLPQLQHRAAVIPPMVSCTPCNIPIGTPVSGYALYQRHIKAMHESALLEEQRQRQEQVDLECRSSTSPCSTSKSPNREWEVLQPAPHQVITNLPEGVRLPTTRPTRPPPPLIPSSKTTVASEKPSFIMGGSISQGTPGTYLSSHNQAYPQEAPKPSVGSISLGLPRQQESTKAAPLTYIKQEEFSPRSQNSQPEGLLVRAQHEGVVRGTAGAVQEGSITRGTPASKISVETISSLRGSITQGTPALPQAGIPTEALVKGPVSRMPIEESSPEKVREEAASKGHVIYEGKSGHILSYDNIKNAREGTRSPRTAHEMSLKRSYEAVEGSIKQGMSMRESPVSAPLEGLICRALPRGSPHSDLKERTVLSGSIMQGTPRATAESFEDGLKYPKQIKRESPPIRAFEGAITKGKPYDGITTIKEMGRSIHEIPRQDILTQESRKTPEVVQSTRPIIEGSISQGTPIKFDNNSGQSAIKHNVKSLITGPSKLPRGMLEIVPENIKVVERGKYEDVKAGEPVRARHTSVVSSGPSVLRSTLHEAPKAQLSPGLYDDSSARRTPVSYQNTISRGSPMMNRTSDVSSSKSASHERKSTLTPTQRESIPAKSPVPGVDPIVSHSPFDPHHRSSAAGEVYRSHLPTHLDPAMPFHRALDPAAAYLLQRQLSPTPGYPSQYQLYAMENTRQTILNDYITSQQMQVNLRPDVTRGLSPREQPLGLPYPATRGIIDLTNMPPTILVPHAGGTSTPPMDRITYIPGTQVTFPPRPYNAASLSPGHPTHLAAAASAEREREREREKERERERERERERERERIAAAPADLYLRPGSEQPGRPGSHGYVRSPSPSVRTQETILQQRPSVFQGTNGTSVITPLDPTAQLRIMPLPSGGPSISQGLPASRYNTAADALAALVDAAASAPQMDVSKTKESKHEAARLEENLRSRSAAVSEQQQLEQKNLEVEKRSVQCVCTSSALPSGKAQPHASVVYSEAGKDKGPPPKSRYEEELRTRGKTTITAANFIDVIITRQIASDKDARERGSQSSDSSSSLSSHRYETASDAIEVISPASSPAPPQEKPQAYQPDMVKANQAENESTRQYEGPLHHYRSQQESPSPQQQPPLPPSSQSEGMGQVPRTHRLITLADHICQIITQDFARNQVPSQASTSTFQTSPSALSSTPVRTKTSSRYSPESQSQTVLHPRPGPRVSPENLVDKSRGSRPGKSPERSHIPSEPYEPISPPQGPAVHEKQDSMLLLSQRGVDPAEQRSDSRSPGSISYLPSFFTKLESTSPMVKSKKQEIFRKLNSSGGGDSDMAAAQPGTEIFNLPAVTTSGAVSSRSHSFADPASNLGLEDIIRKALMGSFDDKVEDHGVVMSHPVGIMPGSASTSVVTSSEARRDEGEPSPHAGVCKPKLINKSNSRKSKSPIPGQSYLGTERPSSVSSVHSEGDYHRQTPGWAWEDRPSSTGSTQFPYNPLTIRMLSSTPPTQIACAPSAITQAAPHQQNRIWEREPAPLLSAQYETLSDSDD

[1] = system: NIH3T3 cells stably expressing the mCherry-GFP-LC3 reporter; test: Macroautophagy activity, mCherry-GFP-LC3 reporter; format: cell-based, mouse
Protocol: Cells were transduced with a lentiviral vector expressing mCherry-GFP-LC3[35], fixed and flux determined as the conversion of dual fluorescence puncta (autophagosomes) into only red fluorescent puncta (autolysosomes). Flux was also measured by immunoblot for LC3 in cells incubated for 6 h with 20 mM NH4Cl/100 μM leupeptin, by discounting the intensity of LC3 in non-treated cells from that in cells treated with the inhibitors.

[2] = target: T2, ligand binding domain (LBD) of the human RARα (residues 176-421) (human, UniProt P10276 176-421); test: fluorescence polarisation; FITC-N-CoR1 (5 nM) with serial two-fold dilutions of RARα LBD from 10 uM, without or with small molecules (10 uM: BMS, CA39, CA77); 20 mM Tris-HCl pH 7.5, 150 mM NaCl, 1 mM EDTA, 5 mM DTT, 10% glycerol; read at 30 min; settings: both partners purified
T2 construct: also called RARα LBD; retinoic acid receptor alpha; source: E. coli BL21(DE3) RIL, purified (Ni-NTA, ULP1 cleavage, subtractive Ni-NTA, Superdex 200); not shown: His6-SUMO, N-terminal, cleaved
T2 sequence (looked up): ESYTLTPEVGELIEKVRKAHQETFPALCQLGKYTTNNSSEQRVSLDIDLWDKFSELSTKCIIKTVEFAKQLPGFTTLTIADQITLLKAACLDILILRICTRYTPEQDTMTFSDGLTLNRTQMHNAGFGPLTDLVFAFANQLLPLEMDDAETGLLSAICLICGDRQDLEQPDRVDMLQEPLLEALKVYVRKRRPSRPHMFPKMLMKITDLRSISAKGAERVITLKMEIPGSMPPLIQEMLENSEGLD

[3] = c0 = 2 (axis unlabelled; ANOVA calls row factor Time)

## CC1(C)CC=C(c2cnc3ccccc3c2)c2cc(C(=O)Nc3ccc(C(=O)O)cc3)ccc21 [BMS614, reference compound]
NIH3T3 cells
  changes in the transcriptome: marked changes in the transcriptome

## CC(=O)Nc1ccc(C2=Nc3ccc(Cl)cc3OC2)cc1 [CA 77]
rd10 mice
  Fig. 7a, retinal measurement by eccentricity, eccentricity 1: 0.2752 and 0.2828 and 0.2675 and 0.4954 and 0.393 and 0.3603 and 0.3938
  Fig. 7a, retinal measurement by eccentricity, eccentricity 2: 0.3254 and 0.2696 and 0.3495 and 0.2864 and 0.4558 and 0.3792 and 0.723
  Fig. 7a, retinal measurement by eccentricity, eccentricity 3: 0.3333 and 0.3595 and 0.4443 and 0.4969 and 0.8558 and 0.7642 and 0.8417
  Fig. 7a, retinal measurement by eccentricity, eccentricity 4: 0.6989 and 0.5535 and 0.938 and 1.0799 and 0.9103 and 0.9911 and 0.7623
  Fig. 7a, retinal measurement by eccentricity, eccentricity -1: 0.7616 and 0.2157 and 0.1911 and 0.3575 and 0.223 and 0.305
  Fig. 7a, retinal measurement by eccentricity, eccentricity -2: 0.2825 and 0.2446 and 0.25 and 0.4552 and 0.7496 and 0.1825 and 0.2782
  Fig. 7a, retinal measurement by eccentricity, eccentricity -3: 0.4178 and 0.4298 and 0.7568 and 0.9291 and 0.9244 and 0.276 and 0.3979

## O=C(CCCCC1SCC2NC(=O)NC21)NCCCOCCOCCOCCCNC(=O)c1ccc(C2=Nc3ccc(Cl)cc3OC2)cc1 (stereo not shown) [biotinylated CA compound]
N-CoR1 and RARα
  co-immunoprecipitation of cellular RARα and N-CoR1: could be co-immunoprecipitated

## CO[C@H]1C[C@@H]2CC[C@@H](C)[C@@](O)(O2)C(=O)C(=O)N2CCCC[C@H]2C(=O)O[C@H]([C@H](C)C[C@@H]2CC[C@@H](O)[C@H](OC)C2)CC(=O)[C@H](C)/C=C(\C)[C@@H](O)[C@@H](OC)C(=O)[C@H](C)C[C@H](C)/C=C/C=C/C=C/1C [rapamycin, reference compound]
[1]; [3]
  APG (Fig. S3e): 1.605
  AUT (Fig. S3e): 1.965
  AV (Fig. S3e): 3.57
[1]; c0 = 5 (axis unlabelled)
  APG (Fig. S3e): 2.415
  AUT (Fig. S3e): 2.129
  AV (Fig. S3e): 4.544
[1]; c0 = 10 (axis unlabelled)
  APG (Fig. S3e): 3.3128
  AUT (Fig. S3e): 3.752
  AV (Fig. S3e): 7.064
[1]; c0 = 20 (axis unlabelled)
  APG (Fig. S3e): 5.184
  AUT (Fig. S3e): 4.731
  AV (Fig. S3e): 9.915
[1]; c0 = 30 (axis unlabelled)
  APG (Fig. S3e): 4.9183
  AUT (Fig. S3e): 11.4046
  AV (Fig. S3e): 16.3229

B1: fluorescein-tagged peptide of N-CoR1, FITC-Ahx-RLITLADHICQIITQDFAR (peptide)
peptide: {FITC-Ahx}-RLITLADHICQIITQDFAR
notes: peptide of nuclear receptor corepressor 1 (N-CoR1); also called FITC-N-CoR1; N-CoR1 peptide; source: synthetic peptide; bought: Genscript, purity > 95%
[2]
  binding result: binds

Source: article PMC9304322, “Targeting retinoic acid receptor alpha-corepressor interaction activates chaperone-mediated autophagy and protects against retinal degeneration” (Nature Communications, 2022)
